{"source": "patent US20080026049A1", "about": "“LIPOSOMAL COMPOSITIONS FOR PARENTERAL DELIVERY OF AGENTS” (priority 2005, published 2008)", "assay": "physchem", "conditions": "HBS, aqueous buffer", "data": [{"smiles": "Clc1ccc(COC(Cn2ccnc2)c2ccc(Cl)cc2Cl)cc1", "note": "(stereo not shown) [econazole, [(dichloro-2,4 phenyl)-2(chloro-4 benzoyloxy)-2 ethyl]-1 imidazole nitrate]", "values": [{"measurement": "solubility", "value": "< 100", "unit": "µg/mL"}]}]}
